Test results published in patent publication US5475034A, “Topically administrable compositions containing 3-benzoylphenylacetic acid derivatives for treatment of ophthalmic inflammatory disorders” (Alcon Laboratories, Inc., priority 1994, dated 1995).
Where two headings read alike, the source gives them in different places.

Columns and labels:
[1] = target: T1, prostaglandin H synthase (cyclooxygenase) (Ovis aries, UniProt P05979); test: In vitro inhibition of cyclooxygenase (polarographic oxygen consumption, conversion of arachidonic acid to prostaglandin H2); format: biochemical, sheep; conditions: for IC50: sheep vesicular gland microsomal enzyme, pH 7.4, 30° C.; for less effective inhibitors of cyclooxygenase activity in vitro: versus free carboxylic acid analogues
T1 construct: sheep vesicular gland microsomal powder; from tissue; host or cells: sheep vesicular gland (lipid-depleted microsomal powder, solubilized)
T1 sequence (P05979 25-600): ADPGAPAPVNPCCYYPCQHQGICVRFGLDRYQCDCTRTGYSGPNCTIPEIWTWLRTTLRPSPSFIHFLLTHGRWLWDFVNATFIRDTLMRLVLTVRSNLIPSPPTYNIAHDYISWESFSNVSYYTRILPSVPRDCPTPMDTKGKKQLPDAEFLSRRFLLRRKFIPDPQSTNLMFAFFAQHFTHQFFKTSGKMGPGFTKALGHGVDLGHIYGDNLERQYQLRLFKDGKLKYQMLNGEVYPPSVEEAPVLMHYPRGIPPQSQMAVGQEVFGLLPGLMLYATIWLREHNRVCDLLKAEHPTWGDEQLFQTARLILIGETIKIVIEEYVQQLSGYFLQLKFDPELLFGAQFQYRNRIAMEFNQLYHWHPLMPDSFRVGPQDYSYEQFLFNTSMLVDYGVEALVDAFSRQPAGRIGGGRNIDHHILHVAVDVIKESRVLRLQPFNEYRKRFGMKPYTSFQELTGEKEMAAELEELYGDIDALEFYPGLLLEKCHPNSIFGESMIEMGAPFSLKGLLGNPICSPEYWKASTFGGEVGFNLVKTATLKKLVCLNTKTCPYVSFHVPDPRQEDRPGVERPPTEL
Protocol: In vitro anti-inflammatory activity of 2-amino-3-benzoylbenzeneacetic acid analogues was tested by polarographically monitoring the inhibition in the rate of oxygen consumption (Cook H. W., Ford G., and Lands WEM, Anal. Biochem. 96:341, 1979) in the conversion of arachidonic acid to prostaglandin H2 by prostaglandin H synthase (cyclooxygenase). Cyclooxygenase enzyme was prepared by solubilizing 20 mg of lipid-depletedsheep vesicular gland microsomal powder (Graff G., Stephenson J. H., et al., J. Biol. Chem. 253:7662, 1978) in 1.0 mL of buffer containing 50 mM phosphate, 5 mM diethyldithiocarbamic acid, and 2 μM hematin (pH 7.4). Incubations were carried out at 30° C. with a YSI-oxygen monitor (Model 53) in 50 mM phosphate/0.5 mM phenol buffer (pH 7.4) as described elsewhere (Graff G., and Anderson L. A., Prostaglandins 38:473, 1989).

[2] = test system: trauma-induced breakdown of the blood-aqueous-barrier; test: In vivo trauma-induced (paracentesis) breakdown of the blood-aqueous-barrier: aqueous humor PGE2 and protein; set-up: species or system New Zealand Albino (NZA) rabbits; conditions: for inhibition in vivo at 0.1 %: Oryctolagus cuniculus, 0.5 h, read-out: In Vivo Paracentesis Protein Extravasation Inhibition
Protocol: In vivo anti-inflammatory activity of 2-amino-3-benzoylbenzeneacetic acid analogues was evaluated in the model of trauma-induced breakdown of the blood-aqueous-barrier in New Zealand Albino (NZA) rabbits. Animals were anesthetized prior to bilateral administration of a single topical 50 μL dose of a 0.1% solution/suspension of formulated test or reference compound. After 45 minutes of treatment ocular trauma was induced by paracentesis.

[3] = test system: iris/ciliary body prostaglandin synthesis; test: Ex vivo inhibition of iris/ciliary body prostaglandin synthesis after topical dosing; format: in vivo, New Zealand Albino (NZA) rabbits; conditions: for inhibition in vivo at 0.1 %: Oryctolagus cuniculus, 1 h, single topical dose of 0.1% drug solution/suspension 60 minutes prior to iris/ciliary body isolation, read-out: Ex Vivo Iris/Ciliary Body Total Prostaglandin Synthesis Inhibition
Protocol: Ex vivo anti-inflammatory activity of 2-amino-3-benzoylbenzeneacetic acid analogues was evaluated in naive New Zealand Albino (NZA) rabbits. In this test animals were dosed bilaterally with a single 50 μL aliquot of a 0.1% solution/suspension of vehicle, formulated test or reference compound. After 60 minutes of treatment, animals were euthanized, iris/ciliary body (ICB) quickly excised and placed into ice-cold PBS buffer (pH 7.4). The tissue was then weighed, homogenized in ice-cold 50 mM phosphate/0.5 mM phenol buffer (pH 7.4) and incubated for 10 minutes at 37° C. with 10 μM of [1-^14 C]-20:4.

[4] = single topical dose of 0.1% drug solution/suspension 45 minutes prior to paracentesis
[5] = single topical dose of 0.1% drug solution/suspension 45 minutes prior to paracentesis, plasma protein influx into aqueous humor

Compound	IC50 [1] [µM]	less effective inhibitors of cyclooxygenase activity in vitro [1]	in vitro cyclooxygenase inhibition, result in words [1]	inhibition in vivo at 0.1 % [2] [%]	in vivo anti-inflammatory activity, result in words ([2]; plasma protein influx and aqueous humor PGE2 accumulation)	In Vivo Aqueous Humor PGE2 Accumulation Inhibition [2, 4] [%]	inhibition in vivo at 0.1 % [3] [%]	inhibition in vivo at 0.1 % [2, 5] [%]	in vivo anti-inflammatory activity, result in words [2]	spectrum of inhibition of iris/ciliary body prostaglandins ([3]; individual prostaglandins)	ex vivo iris/ciliary body prostaglandin synthesis inhibition, result in words ([3]; rabbit, in vivo)
O=C(O)Cc1ccccc1Nc1c(Cl)cccc1Cl [Diclofenac, reference compound]	–	–	somewhat less effective	54	somewhat less effective	97	50	–	–	–	–
NC(=O)Cc1cccc(C(=O)c2ccc(Cl)cc2)c1N [Compound 9, 2-Amino-3-(4-chlorobenzoyl)-phenylacetamide]	> 100	≥ 3 orders of magnitude	–	–	–	98	29	65	–	–	–
NC(=O)Cc1cccc(C(=O)c2ccc(F)cc2)c1N [Compound 7, 2-Amino-3-(4-fluorobenzoyl)-phenylacetamide]	133	≥ 3 orders of magnitude	–	–	–	98	27	72	–	–	–
Nc1c(CC(=O)O)cccc1C(=O)c1ccccc1 [Amfenac, 2-amino-3-benzoylbenzeneacetic acid, reference compound]	0.25	–	–	–	–	–	–	41	–	–	–
NC(=O)Cc1cccc(C(=O)c2ccccc2)c1N [Compound 8, 2-Amino-3-benzoyl-phenylacetamide]	64	≥ 3 orders of magnitude	–	–	–	98	81	61	–	inhibited to a similar extent	most effective inhibitor

Now from value to compound, other results behind:

IC50 [1] [µM]	less effective inhibitors of cyclooxygenase activity in vitro [1]	Compound	in vitro cyclooxygenase inhibition, result in words [1]	inhibition in vivo at 0.1 % [2] [%]	in vivo anti-inflammatory activity, result in words ([2]; plasma protein influx and aqueous humor PGE2 accumulation)	In Vivo Aqueous Humor PGE2 Accumulation Inhibition [2, 4] [%]	inhibition in vivo at 0.1 % [3] [%]	inhibition in vivo at 0.1 % [2, 5] [%]	in vivo anti-inflammatory activity, result in words [2]	spectrum of inhibition of iris/ciliary body prostaglandins ([3]; individual prostaglandins)	ex vivo iris/ciliary body prostaglandin synthesis inhibition, result in words ([3]; rabbit, in vivo)
> 25	–	CCOC(=O)Cc1cccc(C(=O)c2ccc(Br)cc2)c1N [Compound 14, Ethyl-2-Amino-3-(4-bromobenzoyl)benzene acetate]	–	–	–	–	33	60	–	–	–
19	≥ 3 orders of magnitude	NC(=O)Cc1cccc(C(=O)c2ccc(Br)cc2)c1N [Compound 15, 2-Amino-3-(4-bromobenzoyl)-phenylacetamide]	–	–	–	97	23	64	–	–	–
0.07	–	Nc1c(CC(=O)O)cccc1C(=O)c1ccc(Cl)cc1 [4'-Cl OH, 2-amino-3-(4-chloro-benzoyl)benzeneacetic acid, reference compound]	–	–	–	99	–	72	–	–	–
16	≥ 3 orders of magnitude	CNC(=O)Cc1cccc(C(=O)c2ccc(Br)cc2)c1N [Compound 16, 2-Amino-3-(4-bromobenzoyl)-N-methyl phenylacetamide]	–	–	–	93	48	62	–	–	–
0.171	–	Nc1c(CC(=O)O)cccc1C(=O)c1ccc(F)cc1 [4'-F OH, reference compound]	–	–	–	–	–	42	–	–	–
0.029	–	Nc1c(CC(=O)O)cccc1C(=O)c1ccc(Br)cc1 [Bromfenac, reference compound]	–	–	–	98	44	62	–	–	–
> 100	–	CN(C)C(=O)Cc1cccc(C(=O)c2ccc(Br)cc2)c1N [4'-Br N(CH3)2, reference compound]	inactive	–	–	-27	–	2	inactive	–	–
